Laboratory results: publication PMC6959289, “Development of a Biosensor for Detection of Benzoic Acid Derivatives in Saccharomyces cerevisiae” (Frontiers in Bioengineering and Biotechnology, 2020)

Target: T1, sBAD (formerly sHbaR); LexA-HbaR ligand-binding domain-B112 synthetic transcription factor (Rhodopseudomonas palustris, UniProt Q9RFR5)
T1 construct: expressed in S. cerevisiae CEN.PK 2C-1
T1 sequence (Q9RFR5 1-241 limits assumed): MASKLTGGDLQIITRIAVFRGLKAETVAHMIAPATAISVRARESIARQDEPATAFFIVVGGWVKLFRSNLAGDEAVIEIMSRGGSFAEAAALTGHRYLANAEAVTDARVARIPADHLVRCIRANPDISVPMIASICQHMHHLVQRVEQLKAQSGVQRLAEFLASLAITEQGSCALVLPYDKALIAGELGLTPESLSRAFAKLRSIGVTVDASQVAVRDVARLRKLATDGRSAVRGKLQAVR
Assay: mCitrine reporter activation in yeast, flow cytometry, dose-response
Assay type: cell-based, Saccharomyces cerevisiae
From the text: mCitrine reporter activation in yeast, flow cytometry, dose-response on sBAD (formerly sHbaR); LexA-HbaR ligand-binding domain-B112 synthetic transcription factor

O=C(O)c1ccc(O)cc1 [HBA, 4-hydroxybenzoic acid]
EC50: 749 ± 399 µM

CC(=O)Oc1ccccc1C(=O)O [aspirin]
EC50: 598 ± 283 µM

Nc1ccc(C(=O)O)cc1 [pABA, 4-aminobenzoic acid]
EC50: 169 ± 81 µM

O=C(O)c1ccccc1 [benzoic acid]
EC50: 47 ± 20 µM
